How the values were obtained:
CHO-K1 = assay: XTT cell proliferation assay (phototoxicity), CHO-K1 negative control; type: cell-based, Chinese hamster; conditions: CHO-K1 exposed to 800 nM; with light activation
Procedure: All cell lines were […], including the EGFR^+ A431, MDA-MB-231, MDA-MB468 and SiHa cells, and the EGFR^− L540, CHO-K1 and HEK-293T cells. A431, L540, CHO-K1 and HEK-293T cells were cultured in RPMI-1640 medium supplemented with 2 mM L-glutamine, 10% (v/v) fetal bovine serum (FBS) and 100 U/ml penicillin-streptomycin. MDA-MB-231, MDA-MB468 and SiHa cells were cultured in DMEM with 10% (v/v) fetal bovine serum (FBS) and 100 U/ml penicillin-streptomycin. All cells were incubated at 37° C. in a 5% CO2 atmosphere. All media and additives were obtained from Invitrogen, Darmstadt, Germany.
(§1) Control cultures were incubated with 500 μg/ml zeocin instead of the photosensitizer. The cells were then irradiated with 24 J/cm^2 broadband visible/near infrared light using Hydrosun type 505, 7-mm water cuvette and orange filter OG590, spectrum in the range 580-1400 nm (Hydrosun Medizintechnik GmbH, Müllheim, Germany) and incubated for a further 24 h at 37° C. in a 5% CO2 atmosphere.
Cell viability was determined using the XTT cell proliferation kit II (Roche, Mannheim Germany), 24 h after light activation. […] Reduction of XTT to formazan by viable tumor cells was monitored colorimetrically at an absorbance wavelength of 450 nm and a reference wavelength of 630 nm using an ELISA plate reader Elisareader ELx808 (Bio-TEK, Bad Friedrichsahll, Germany).

caspase-3 and caspase-7 = assay: Apo-ONE Homogeneous Caspase-3/7 Assay; type: cell-based, human; conditions: 200 nM; 24 h after light activation; A431, MDA-MB-231, MDA-MB468, SiHa and CHO-K1 cells analyzed
Procedure: as §1
Caspase-3/7 activity in cell lysates was determined using the Apo-ONE Caspase-3/7 assay (Promega, Mannheim, Germany) 24 h after light activation. Briefly, 100 μl of Apo-ONE reagent was added to the cells, and they were incubated for 6 h before fluorescence readings were taken with an ELISA plate reader Elisareader ELx808 (Bio-TEK, Bad Friedrichsahll, Germany) using an excitation wavelength of 485 nm and an emission wavelength of 535 nm. The concentration of ROS was determined by measuring the 485/535 nm fluorescence ratio of H2DCFDA (Invitrogen, Darmstadt, Germany). […] The cells were washed twice with warm PBS containing 2.5% FCS, cultured for 2 h in […] medium and illuminated as described above. Fluorescence readings were taken directly after illumination. A blank probe (cells and medium) reading was used as the background and subtracted from all the sample readings.

[1] = tested on: A431, MDA-MB-231, MDA-MB468 and SiHa cells; assay: Confocal microscopy binding and internalization, EGFR^+ cells; type: cell-based, human
Procedure: (§2) Images were visualized with a TCS SP5 confocal microscope (LEICA Microsystem, Wetzlar, Germany). Cells were prepared as described above for flow cytometry. Binding efficiency was determined by incubating cells with the labeled fusion proteins for 30 min on ice. Internalization was monitored by incubating cells with the labeled fusion proteins for 30 min at 37° C.

[2] = tested on: EGFR^− cell lines L540 and CHO-K1; assay: Confocal microscopy binding and internalization, EGFR^− cells; type: cell-based, human; conditions: 4° C. and 37° C.
Procedure: as §2

A431 cells = assay: ROS generation (carboxy-H2DCFDA fluorescence) in photosensitized A431 cells; type: cell-based, human; conditions: 200 nM
Procedure: Caspase-3/7 activity in cell lysates was determined using the Apo-ONE Caspase-3/7 assay (Promega, Mannheim, Germany) 24 h after light activation. […] The cells were washed twice with warm PBS containing 2.5% FCS, cultured for 2 h in […] medium and illuminated as described above. Fluorescence readings were taken directly after illumination. A blank probe (cells and medium) reading was used as the background and subtracted from all the sample readings.

scFv-425-SNAP-Ce6
cell viability (CHO-K1): remained unaffected | levels of caspase-3 and caspase-7 (caspase-3 and caspase-7): increased | membrane staining (confocal microscopy) ([1]; 0.5 μg, 30 min at 4° C.): strong, specific and homogeneous membrane staining | internalization (uptake into cells, confocal microscopy) ([1]; 30-min incubation at 37° C.): specifically and efficiently taken up | Ce6 fluorescence signal (confocal microscopy) [2]: no signal was detected | ROS synthesis (DCF 485/535-nm fluorescence) (A431 cells; after light activation): burst of ROS synthesis | ROS levels (DCF 485/535-nm fluorescence) (A431 cells; non-irradiated cells): only a small increase in ROS levels

From patent US9872904B2, “Photoimmunoconjugates for use in photodynamic therapy” (Fraunhofer-Gesellschaft zur Foerderung der angewandten …, priority 2012, dated 2018)
